Reference: US6706663B2, “Herbicidal 3-heterocyclic substituted benzisothiazole and benzisoxazole compounds” (Wyeth, priority 2000, dated 2004)

Legend:
[1] = system: ABUTH (Abutilon theophrasti); test: Postemergence herbicidal evaluation; type: in vivo, Medic.; conditions: postemergence
Procedure, shortened: (§1)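 Seedlings grown for about two weeks were sprayed postemergence and then kept under standard greenhouse care. Injury was rated visually 4–5 weeks after treatment on a 0–9 scale against untreated controls, and ratings from repeat tests were averaged.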

[2] = system: AMBEL (Ambrosia artemisifolia); test: Postemergence herbicidal evaluation; type: in vivo, L.; conditions: postemergence
Procedure, shortened: as §1

[3] = system: CASOB (Cassia obtusifolia); test: Postemergence herbicidal evaluation; type: in vivo, L.; conditions: postemergence
Procedure, shortened: as §1

[4] = system: CHEAL (Chenopodium album); test: Postemergence herbicidal evaluation; type: in vivo, L.; conditions: postemergence
Procedure, shortened: as §1

GALAP (Galium aparine) [5] = test: Postemergence herbicidal evaluation; type: in vivo; conditions: postemergence
Procedure, shortened: as §1

[6] = system: IPOHE (Ipomoea hederacea); test: Postemergence herbicidal evaluation; type: in vivo, (L.) Jacq.; conditions: postemergence
Procedure, shortened: as §1

[7] = system: GLXMAW (Soybean, Williams); test: Postemergence herbicidal evaluation; type: in vivo, Glycine max, (L.) Merr. cv Williams; conditions: postemergence
Procedure, shortened: as §1

ORYSAT (Rice, Tebonnet) [8] = test: Postemergence herbicidal evaluation; type: in vivo, Oryza sativa, (L.) Tebonnet; conditions: postemergence
Procedure, shortened: as §1

ZEAMX (Corn, Field) = test: Postemergence herbicidal evaluation; type: in vivo, Zea mays, L.; conditions: postemergence
Procedure, shortened: as §1

[9] = system: ECHCG (Echinochloa crus-galli); test: Preemergence herbicidal evaluation; type: in vivo, (L.) Beau; conditions: rated 4-5 weeks after treatment
Procedure, shortened: (§2)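 Seeds mixed with potting soil were planted atop about one inch of soil, then sprayed with test compound in aqueous acetone. Cups were kept in the greenhouse and rated visually 4–5 weeks after treatment on a 0–9 scale against untreated control.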

SETVI (Setaria viridis) = test: Preemergence herbicidal evaluation; type: in vivo, (L.) Beau; conditions: rated 4-5 weeks after treatment
Procedure, shortened: as §2

ORYSAT (Rice, Tebonnet) [10] = test: Preemergence herbicidal evaluation; type: in vivo, Oryza sativa, (L.) Tebonnet; conditions: rated 4-5 weeks after treatment
[11] = system: TRZAWR (Wheat, Winter, cv Riband); test: Preemergence herbicidal evaluation; type: in vivo, Triticum aestivum; conditions: rated 4-5 weeks after treatment
Procedure, shortened: as §2

[12] = system: ECHORC (Echinochloa oryzoides); test: Flooded paddy, postemergence weed control; type: in vivo, Echinochloa oryzoides (Ard.) Fritsch.; conditions: postemergence weeds, rated 3-4 weeks after treatment
Description: (§3) Results of herbicide evaluation are expressed on a rating scale (0-9). The scale is based upon a visual observation of plant stand, vigor, malformation, size, chlorosis and overall plant appearance as compared with a control.
(§4) Plastic containers containing weeds which are 3 to 5 cm tall and rice seedlings at the 1.5 to 2.5 leaf stage are flooded with water. The water is maintained at 1.5 to 3 cm above the soil surface for the duration of the experiment. Test compounds are applied as aqueous/acetone mixtures 50/50 v/v directly into the flood water to provide the equivalent of about 0.0320 to 0.2500 kg/ha of active ingredient. The treated containers are placed on greenhouse benches and cared for in accordance with conventional greenhouse procedures. Three to four weeks after treatment, the test is terminated and each container is examined and herbicidal effect rated according to the rating system provided in Example 87. The compounds evaluated are identified in Example 87 and plant species used are identified in Example 89.

[13] = system: CYPSE (Cyperus serotinus); test: Flooded paddy, postemergence weed control; type: in vivo, Rottb.; conditions: postemergence weeds, rated 3-4 weeks after treatment
Description: as §3, §4

[14] = system: MOOVA (Monochoria vaginalis); test: Flooded paddy, postemergence weed control; type: in vivo, Presl.; conditions: postemergence weeds, rated 3-4 weeks after treatment
Description: as §3, §4

[15] = system: SAGPY (Sagittaria pygmaea); test: Flooded paddy, postemergence weed control; type: in vivo, L.; conditions: postemergence weeds, rated 3-4 weeks after treatment
Description: as §3, §4

ORYSAT (Rice, Tebonnet) [16] = test: Flooded paddy, post-transplant and postemergence rice tolerance; type: in vivo, Oryza sativa, (L.) Tebonnet; conditions: post-transplant rice, rated 3-4 weeks after treatment
Description: as §3, §4

GALAP (Galium aparine) [17] = test: Preemergence herbicidal evaluation; type: in vivo; conditions: preemergence, rated 4-5 weeks after treatment
Procedure, shortened: as §2

[18] = preemergence, rate 0.0620 kg/ha
[19] = preemergence, rate 0.1250 kg/ha
[20] = preemergence, rate 0.2500 kg/ha

Cn1c(C(F)(F)F)cc(=O)n(-c2ccc3snc(C4OC(C)(C)C(C)(C)O4)c3c2)c1=O [Compound 56, 1-methyl-3-[3-(4,4,5,5-tetramethyl-1,3-dioxolan-2-yl)-1,2-benzisothiazol-5-yl]-6-(trifluoromethyl)uracil]
3.5: ORYSAT herbicidal rating (ORYSAT (Rice, Tebonnet) [8]; rate 0.0320 kg/ha)
4.5: ORYSAT herbicidal rating (ORYSAT (Rice, Tebonnet) [8]; rate 0.0620 kg/ha)
7.0: CASOB herbicidal rating ([3]; rate 0.0620 kg/ha) | CHEAL herbicidal rating ([4]; rate 0.0320 kg/ha) | Preemergence herbicidal rating TRZAWR ([11]; Rate 0.2500 kg/ha) | herbicide rating (0-9) MOOVA ([14]; 0.1250 kg/ha into flood water) | herbicide rating (0-9) ORYSAT (rice tolerance) (ORYSAT (Rice, Tebonnet) [16]; 0.0320 kg/ha into flood water) | herbicide rating (0-9) ORYSAT (rice tolerance) (ORYSAT (Rice, Tebonnet) [16]; 0.0620 kg/ha into flood water)
4.0: herbicide rating (0-9) MOOVA ([14]; 0.0620 kg/ha into flood water)
8.5: Preemergence herbicidal rating SETVI (SETVI (Setaria viridis); Rate 0.0620 kg/ha)
3.0: CASOB herbicidal rating ([3]; rate 0.0320 kg/ha) | GALAP herbicidal rating (GALAP (Galium aparine) [5]; rate 0.0320 kg/ha) | GALAP herbicidal rating (GALAP (Galium aparine) [5]; rate 0.0620 kg/ha)
6.5: GLXMAW herbicidal rating ([7]; rate 0.0620 kg/ha)
2.0: herbicide rating (0-9) MOOVA ([14]; 0.0320 kg/ha into flood water) | herbicide rating (0-9) SAGPY ([15]; 0.1250 kg/ha into flood water)
6.0: GLXMAW herbicidal rating ([7]; rate 0.0320 kg/ha) | Preemergence herbicidal rating ORYSAT (ORYSAT (Rice, Tebonnet) [10]; Rate 0.1250 kg/ha) | Preemergence herbicidal rating ORYSAT (ORYSAT (Rice, Tebonnet) [10]; Rate 0.2500 kg/ha) | Preemergence herbicidal rating TRZAWR ([11]; Rate 0.0620 kg/ha) | Preemergence herbicidal rating TRZAWR ([11]; Rate 0.1250 kg/ha)
0.0: herbicide rating (0-9) CYPSE ([13]; 0.0620 kg/ha into flood water) | herbicide rating (0-9) SAGPY ([15]; 0.0320 kg/ha into flood water) | herbicide rating (0-9) SAGPY ([15]; 0.0620 kg/ha into flood water)
9.0: ABUTH herbicidal rating ([1]; rate 0.0320 kg/ha) | ABUTH herbicidal rating ([1]; rate 0.0620 kg/ha) | AMBEL herbicidal rating ([2]; rate 0.0320 kg/ha) | AMBEL herbicidal rating ([2]; rate 0.0620 kg/ha) | CHEAL herbicidal rating ([4]; rate 0.0620 kg/ha) | IPOHE herbicidal rating ([6]; rate 0.0320 kg/ha) | IPOHE herbicidal rating ([6]; rate 0.0620 kg/ha) | Preemergence herbicidal rating ECHCG ([9]; Rate 0.0620 kg/ha) | Preemergence herbicidal rating ECHCG ([9]; Rate 0.1250 kg/ha) | Preemergence herbicidal rating ECHCG ([9]; Rate 0.2500 kg/ha) | Preemergence herbicidal rating SETVI (SETVI (Setaria viridis); Rate 0.1250 kg/ha) | Preemergence herbicidal rating SETVI (SETVI (Setaria viridis); Rate 0.2500 kg/ha) | herbicide rating (0-9) ECHORC ([12]; 0.0320 kg/ha into flood water) | herbicide rating (0-9) ECHORC ([12]; 0.0620 kg/ha into flood water) | herbicide rating (0-9) ECHORC ([12]; 0.1250 kg/ha into flood water) | herbicide rating (0-9) CYPSE ([13]; 0.1250 kg/ha into flood water) | herbicide rating (0-9) ORYSAT (rice tolerance) (ORYSAT (Rice, Tebonnet) [16]; 0.1250 kg/ha into flood water)
5.5: ZEAMX herbicidal rating (ZEAMX (Corn, Field); rate 0.0620 kg/ha)
5.0: ZEAMX herbicidal rating (ZEAMX (Corn, Field); rate 0.0320 kg/ha) | Preemergence herbicidal rating ORYSAT (ORYSAT (Rice, Tebonnet) [10]; Rate 0.0620 kg/ha)

Cn1c(C(F)(F)F)cc(=O)n(-c2ccc3snc(-c4ccoc4)c3c2)c1=O [Compound 83, 3-[3-(3-furyl)-1,2-benzisothiazol-5-yl]-1-methyl-6-(trifluoromethyl)uracil]
6.5: Preemergence herbicidal rating ECHCG [9, 19]
9.0: ABUTH herbicidal rating ([1]; rate 0.0620 kg/ha) | Preemergence herbicidal rating ECHCG [9, 20] | Preemergence herbicidal rating SETVI (SETVI (Setaria viridis); [19]) | Preemergence herbicidal rating SETVI (SETVI (Setaria viridis); [20])
5.0: Preemergence herbicidal rating TRZAWR [11, 20]
3.5: Preemergence herbicidal rating ORYSAT (ORYSAT (Rice, Tebonnet) [10]; [19])
5.5: Preemergence herbicidal rating ORYSAT (ORYSAT (Rice, Tebonnet) [10]; [20])
0.0: Preemergence herbicidal rating ORYSAT (ORYSAT (Rice, Tebonnet) [10]; [18])
4.0: CASOB herbicidal rating ([3]; rate 0.0320 kg/ha) | IPOHE herbicidal rating ([6]; rate 0.0620 kg/ha) | GLXMAW herbicidal rating ([7]; rate 0.0320 kg/ha) | Preemergence herbicidal rating GALAP (GALAP (Galium aparine) [17]; rate 0.1250 kg/ha) | Preemergence herbicidal rating TRZAWR [11, 19]
1.5: ORYSAT herbicidal rating (ORYSAT (Rice, Tebonnet) [8]; rate 0.0320 kg/ha)
2.5: ZEAMX herbicidal rating (ZEAMX (Corn, Field); rate 0.0320 kg/ha)
6.0: ABUTH herbicidal rating ([1]; rate 0.0320 kg/ha) | AMBEL herbicidal rating ([2]; rate 0.0620 kg/ha) | CASOB herbicidal rating ([3]; rate 0.0620 kg/ha) | CHEAL herbicidal rating ([4]; rate 0.0620 kg/ha) | GLXMAW herbicidal rating ([7]; rate 0.0620 kg/ha) | Preemergence herbicidal rating SETVI (SETVI (Setaria viridis); [18])
3.0: CHEAL herbicidal rating ([4]; rate 0.0320 kg/ha) | GALAP herbicidal rating (GALAP (Galium aparine) [5]; rate 0.0620 kg/ha) | ORYSAT herbicidal rating (ORYSAT (Rice, Tebonnet) [8]; rate 0.0620 kg/ha) | ZEAMX herbicidal rating (ZEAMX (Corn, Field); rate 0.0620 kg/ha) | Preemergence herbicidal rating TRZAWR [11, 18]
2.0: AMBEL herbicidal rating ([2]; rate 0.0320 kg/ha) | GALAP herbicidal rating (GALAP (Galium aparine) [5]; rate 0.0320 kg/ha) | IPOHE herbicidal rating ([6]; rate 0.0320 kg/ha) | Preemergence herbicidal rating ECHCG [9, 18]

Cn1c(C(F)(F)F)cc(=O)n(-c2ccc3snc(-c4sccc4CO)c3c2)c1=O [Compound 85, 3-[3-[3-(hydroxymethyl)-2-thienyl]-1,2-benzisothiazol-5-yl]-1-methyl-6-(trifluoromethyl)uracil]
3.0: Preemergence herbicidal rating ECHCG [9, 19] | Preemergence herbicidal rating TRZAWR [11, 20]
7.0: Preemergence herbicidal rating SETVI (SETVI (Setaria viridis); [20]) | Preemergence herbicidal rating ORYSAT (ORYSAT (Rice, Tebonnet) [10]; [20])
0.0: Preemergence herbicidal rating ECHCG [9, 18] | Preemergence herbicidal rating TRZAWR [11, 18] | Preemergence herbicidal rating TRZAWR [11, 19]
2.0: Preemergence herbicidal rating ORYSAT (ORYSAT (Rice, Tebonnet) [10]; [18])
6.0: GALAP herbicidal rating (GALAP (Galium aparine) [5]; rate 0.0620 kg/ha) | Preemergence herbicidal rating GALAP (GALAP (Galium aparine) [17]; rate 0.1250 kg/ha) | Preemergence herbicidal rating ORYSAT (ORYSAT (Rice, Tebonnet) [10]; [19])
3.5: GLXMAW herbicidal rating ([7]; rate 0.0320 kg/ha) | ORYSAT herbicidal rating (ORYSAT (Rice, Tebonnet) [8]; rate 0.0320 kg/ha)
9.0: ABUTH herbicidal rating ([1]; rate 0.0320 kg/ha) | ABUTH herbicidal rating ([1]; rate 0.0620 kg/ha) | AMBEL herbicidal rating ([2]; rate 0.0620 kg/ha) | CHEAL herbicidal rating ([4]; rate 0.0320 kg/ha) | CHEAL herbicidal rating ([4]; rate 0.0620 kg/ha) | IPOHE herbicidal rating ([6]; rate 0.0320 kg/ha) | IPOHE herbicidal rating ([6]; rate 0.0620 kg/ha) | Preemergence herbicidal rating GALAP (GALAP (Galium aparine) [17]; rate 0.2500 kg/ha) | Preemergence herbicidal rating SETVI (SETVI (Setaria viridis); [19])
5.0: AMBEL herbicidal rating ([2]; rate 0.0320 kg/ha) | ZEAMX herbicidal rating (ZEAMX (Corn, Field); rate 0.0620 kg/ha)
4.5: ORYSAT herbicidal rating (ORYSAT (Rice, Tebonnet) [8]; rate 0.0620 kg/ha) | ZEAMX herbicidal rating (ZEAMX (Corn, Field); rate 0.0320 kg/ha)
4.0: CASOB herbicidal rating ([3]; rate 0.0320 kg/ha) | CASOB herbicidal rating ([3]; rate 0.0620 kg/ha) | GALAP herbicidal rating (GALAP (Galium aparine) [5]; rate 0.0320 kg/ha) | GLXMAW herbicidal rating ([7]; rate 0.0620 kg/ha) | Preemergence herbicidal rating GALAP (GALAP (Galium aparine) [17]; rate 0.0620 kg/ha) | Preemergence herbicidal rating ECHCG [9, 20] | Preemergence herbicidal rating SETVI (SETVI (Setaria viridis); [18])
